Consider one compound from patent US10172839B2, “Use of short term starvation regimen in combination with kinase inhibitors to enhance traditional chemo-drug efficacy and feasibility and reverse side effects of kinases in normal cells and tissues” (UNIVERSITY OF SOUTHERN CALIFORNIA, priority 2014, dated 2019).

A short description of series [1]: Blood glucose levels in mice treated with STS, rapamycin, and rapamycin with STS. It counts as in vivo. On the procedure:
Methods: Short term starvation (STS) or fasting mimicking diet (FMD) were administrated bi-weekly for periods of 48 h or 4 days, respectively. The end of the dietary intervention coincided with the administration of doxorubicin by intravenous injection. The animals were given a period of 10 to 12 days to recover bodyweight between one cycle of dietary intervention and the next. […] One-way ANOVA test was performed and differences with p-value<0.05 were considered significant (p-value<0.05, 0.01 and 0.001 are indicated as *, […], respectively).

The nature of series [2]: Stress resistance experiment: survival after high dose doxorubicin.

On to `CO[C@H]1C[C@@H]2CC[C@@H](C)[C@@](O)(O2)C(=O)C(=O)N2CCCC[C@H]2C(=O)O[C@H]([C@H](C)C[C@@H]2CC[C@@H](O)[C@H](OC)C2)CC(=O)[C@H](C)/C=C(\C)[C@@H](O)[C@@H](OC)C(=O)[C@H](C)C[C@H](C)/C=C/C=C/C=C/1C` [rapamycin], for which the blood glucose entry in series [1] (Rapa+STS/FMD mice (FIG. 1A)) is reported as “decreased blood glucose”; in series [1] (rapamycin alone, intraperitoneally every day, ad lib feeding (FIG. 1A)), “increase of blood glucose”. Also, the “mortality / survival at day 20” value in series [2] (rapamycin 14 days + STS 48 h prior to doxorubicin 24 mg/kg iv (FIG. 2B)) was “STS can reverse the sensitization of normal tissue to chemotherapy induced by rapamycin”; in series [2] (rapamycin 14 days, then doxorubicin 24 mg/kg iv, ad lib feeding (FIG. 2B)), “increased mortality”.
